# Measurements: paper PMC7004151, “Synthesis and Structure‐Activity Relationships of N‐(4‐Benzamidino)‐Oxazolidinones: Potent and Selective Inhibitors of Kallikrein‐Related Peptidase 6” (Chemmedchem, 2019)
# pIC50: −log10 of the molar value. Read-outs that look alike come from different tables or passages of the source.
# Experiments:
# KLK6 [1] = conditions: cited from earlier work
# KLK6 [2] = biological target: T1, KLK6 (Homo sapiens, UniProt Q92876); experiment: SPR binding assay (Biacore T200, KLK6 immobilized on CM5 chip); conditions: read-out: KLK6 pKD (converted)
# Procedure: High Throughput Screen: The European Lead Factory library of ∼350,000 compounds was used for high throughput screening at the Pivot Park Screening Center facilities in Oss, The Netherlands. HighRes Biosolutions robotic infrastructure using Cellario software was programmed to perform screening of 281 1536‐well plates. Using the primary KLK6 fluorescent intensity (FI) assay (see below), 7794 compounds having a Z‐score≤‐4 were selected for further follow‐up. An additional set of compounds was added based on Bayesian modeling to include potential false negatives in the hit confirmation. […] Upon testing of these compounds using SPR and LC‐MS, a qualified hit list (QHL) was registered containing 50 compounds. For SPR, Biacore T200 was used and KLK6 was immobilized onto a CM5 chip. 226 test compounds were screened at 4 concentrations: 20, 4, 0.8 and 0.16 μM in running buffer: 50 mM Tris‐HCl, 1 mM EDTA pH 7.5, 150 mM NaCl, 0.05 % Tween 20, 3 % DMSO at 25 °C. Control injections of 5 μM 1 were used throughout the screen to ensure that KLK6 was stable and had not been blocked by potential irreversible binders/denaturants. An 8 point 1 in 3 dilution series of 1 (50 μM to 0.02 μM) was also applied at the beginning and end of each screening day.
# KLK4 = KLK4 (Homo sapiens, UniProt Q9Y5K2); experiment: KLK4 inhibition (selectivity); type: biochemical; conditions: read-out: KLK4 pIC50 (converted)
# KLK4, sequence (Q9Y5K2 31-254, species assumed): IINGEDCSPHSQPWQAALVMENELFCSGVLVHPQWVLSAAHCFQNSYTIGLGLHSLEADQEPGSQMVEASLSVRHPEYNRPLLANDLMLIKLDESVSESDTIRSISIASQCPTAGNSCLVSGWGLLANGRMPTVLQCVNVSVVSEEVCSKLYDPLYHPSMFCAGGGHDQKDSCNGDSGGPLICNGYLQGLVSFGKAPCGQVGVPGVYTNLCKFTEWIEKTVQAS
# Text: Table 3 Activity of synthesized inhibitors against KLK6 and related proteases. | column: KLK4^a
# KLK7 = biological target: T2, KLK7 (Homo sapiens, UniProt P49862); experiment: KLK7 enzyme inhibition assay; type: biochemical; conditions: read-out: KLK7 pIC50 (converted)
# T2 construct: purchased 2B scientific
# T2 sequence (P49862 30-253, species assumed): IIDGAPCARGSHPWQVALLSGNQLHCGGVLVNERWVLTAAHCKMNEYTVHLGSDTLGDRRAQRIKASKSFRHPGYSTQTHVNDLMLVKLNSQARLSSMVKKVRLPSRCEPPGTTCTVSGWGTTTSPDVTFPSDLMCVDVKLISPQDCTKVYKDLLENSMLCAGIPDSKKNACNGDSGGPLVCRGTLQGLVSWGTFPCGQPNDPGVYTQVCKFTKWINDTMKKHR
# Procedure: (§1) Enzyme inhibition assays: All chemicals were purchased from Sigma Aldrich (Gillingham, UK) unless otherwise stated. All experiments were conducted in 384 well black, low volume microplates (Greiner 784076) with a final volume of 20 μL and compounds were dispensed into assay plates using an ECHO 550 acoustic dispenser (Labcyte). KLK6 (5 nM) (prepared as in ref. 21) was incubated with test compounds for 30 min at room temperature in assay buffer (50 mM Tris, pH 7.5, 150 mM NaCl, 1 mM EDTA, 0.05 % tween 20, 0.1 % bovine serum albumin (BSA), 1 mM dithiothreitol (DTT)) before the reaction was started by addition of 20 μM Boc‐Phe‐Ser‐Arg‐AMC substrate (Bachem). Fluorescence intensity was read at ex/em 355/460 following incubation for 2 h in the dark at room temperature.
# (§2) Assays using KLK7 and KLK8 (2B scientific) were conducted in the same manner as for KLK6 with the following exceptions. Both KLK7 and KLK8 required activation before assaying. KLK7 was combined with an equal volume of 20 μg/ml thermolysin (R&D systems) in activation buffer (50 mM Tris, pH 7.5, 10 mM CaCl2, 150 mM NaCl and 0.05 % Brij‐L23) and incubated at 37 °C for 2 h, the reaction was stopped with the addition of 100 mM EDTA in stop solution (50 mM Tris, 150 mM NaCl, pH 8.5). KLK8 was combined with an equal volume of 0.4 mU/mL lysyl endopeptidase (Alpha laboratories) in activation buffer (50 mM Tris, pH 8.0) and incubated at 37 °C for 30 min. Activated KLK7 (40 nM) and KLK8 (25 nM) were assayed with 40 μM Mca‐RPKPVE‐Nval‐WRK(Dnp)‐NH2 fluorogenic MMP substrate (R&D systems) and 25 μM Boc‐V‐P‐R‐AMC substrate (R&D systems), respectively.
# KLK8 = biological target: T3, KLK8 (Homo sapiens, UniProt O60259); experiment: KLK8 enzyme inhibition assay; type: biochemical; conditions: read-out: KLK8 pIC50 (converted)
# T3 construct: purchased 2B scientific
# T3 sequence (O60259 33-260): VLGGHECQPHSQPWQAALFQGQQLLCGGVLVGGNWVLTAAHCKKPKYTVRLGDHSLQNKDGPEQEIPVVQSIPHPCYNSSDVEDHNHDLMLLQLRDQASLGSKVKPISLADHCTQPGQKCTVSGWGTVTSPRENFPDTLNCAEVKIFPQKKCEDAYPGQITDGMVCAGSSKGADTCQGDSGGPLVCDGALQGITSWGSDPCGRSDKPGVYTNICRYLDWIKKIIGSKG
# Procedure: as §1, §2
# Human trypsin = biological target: T4, Human trypsin (Homo sapiens, UniProt P07477); experiment: Trypsin enzyme inhibition assay; type: biochemical; conditions: read-out: Trypsin pIC50 (converted)
# T4 construct: purchased Polymun Scientific
# Procedure: Human thrombin was purchased from Biopur. Human trypsin was purchased from Polymun Scientific. Human Factor Xa was purchased from Enzo Life Sciences. […] Fluorescence intensity was then read at ex/em 485/535 following incubation for 1 h at room temperature (thrombin and factor Xa) or 20 min (trypsin).
# Human thrombin = biological target: T5, Human thrombin (Homo sapiens, UniProt P00734); experiment: Thrombin enzyme inhibition assay; type: biochemical; conditions: read-out: Thrombin pIC50 (converted)
# T5 construct: Human thrombin was purchased from Biopur; purchased Biopur
# Procedure: (§3) Human thrombin was purchased from Biopur. Human trypsin was purchased from Polymun Scientific. Human Factor Xa was purchased from Enzo Life Sciences. Thrombin (20 nM), trypsin (0.000015 %) or Factor Xa (10 nM) were assayed in a similar manner to the KLKs but were incubated with compound for 20 min at room temperature in assay buffer (50 mM Tris HCl, pH 7.6, 100 mM NaCl, 1 mg/ml CHAPS, 0.05 % bovine serum albumin (BSA), 1 mM dithiothreitol (DTT)) before the addition of 5 μM, 2.5 μM or 1.5 μM Rhodamine 110 substrate (Cambridge bioscience ltd) respectively. Fluorescence intensity was then read at ex/em 485/535 following incubation for 1 h at room temperature (thrombin and factor Xa) or 20 min (trypsin).
# Human Factor Xa = biological target: T6, Human Factor Xa (Homo sapiens, UniProt P00742); experiment: Factor Xa enzyme inhibition assay; type: biochemical; conditions: read-out: Factor Xa pIC50 (converted)
# T6 construct: Human Factor Xa was purchased from Enzo Life Sciences; purchased Enzo Life Sciences
# T6 sequence (P00742 235-488 limits assumed): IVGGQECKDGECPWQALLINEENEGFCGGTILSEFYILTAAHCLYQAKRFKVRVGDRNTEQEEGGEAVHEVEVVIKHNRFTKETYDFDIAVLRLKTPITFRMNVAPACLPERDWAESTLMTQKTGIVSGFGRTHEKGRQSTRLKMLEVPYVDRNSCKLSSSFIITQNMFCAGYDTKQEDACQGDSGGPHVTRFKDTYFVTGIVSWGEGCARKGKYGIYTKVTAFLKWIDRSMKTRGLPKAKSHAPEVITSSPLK
# T6 sequence (P00742 41-179 partner limits assumed): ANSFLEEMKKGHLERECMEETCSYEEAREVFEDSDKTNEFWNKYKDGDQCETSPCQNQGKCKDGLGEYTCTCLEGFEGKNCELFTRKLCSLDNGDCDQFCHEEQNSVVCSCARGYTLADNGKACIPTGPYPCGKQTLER
# Procedure: as §3
# KLK6 [3] = biological target: T1, KLK6; experiment: KLK6 enzymatic inhibition assay (fluorogenic Boc-Phe-Ser-Arg-AMC substrate); type: biochemical; design: made in house; conditions: for IC50: read-out: KLK6 pIC50 (converted)
# Procedure: Using our previously published KLK6 assay format,21 we performed a HTS with the European Lead Factory (ELF),22 and tested ∼350,000 substances at 10 μM for their ability to reduce KLK6‐catalyzed hydrolysis of the fluorogenic Boc‐Phe‐Ser‐Arg‐AMC peptide.
# High Throughput Screen: The European Lead Factory library of ∼350,000 compounds was used for high throughput screening at the Pivot Park Screening Center facilities in Oss, The Netherlands. […] For SPR, Biacore T200 was used and KLK6 was immobilized onto a CM5 chip. […] An 8 point 1 in 3 dilution series of 1 (50 μM to 0.02 μM) was also applied at the beginning and end of each screening day.
# Enzyme inhibition assays: All chemicals were purchased from Sigma Aldrich (Gillingham, UK) unless otherwise stated.
# HCT116 cells [4] = experiment: HCT116 Matrigel invasion assay; type: cell-based; conditions: after 24 h; 9 at multiple concentrations; 32 at 50 nM and 500 nM
# Procedure: Figure 5 HCT116 cells were treated with 9 or 32 at the indicated concentrations and plated on Matrigel®‐coated filters. The upper chamber contained serum‐free medium, while the lower chamber contained 10 % fetal bovine serum. After 24 h, the number of invading cells was measured optically. (A) This figure is one representative example of four biological replicates, each with similar outcomes. Error bars are SEM. Technical replicates: DMSO and 9 at 5 nM (n=3); 9 at 50 and 500 nM and 32 at all concentrations (n=6). Statistical significance was calculated using an unpaired two‐tailed t‐test. n.s=p≥0.05; **=p<0.01; ***=p<0.001. (B) Representative images (Scale bar, […]) of stained invaded cells outside of the inserts 24 h hours after treatment with 9, 32, or DMSO solvent control at the indicated concentrations. Phase contrast images were taken with EVOS FL Cell imagine system FL Auto microscope (Bio‐Rad).
# Invasion assay: The HCT116 colorectal adenocarcinoma cell line (ATCC® CCL‐247™) was maintained in Dulbecco's Modified Eagle Medium (DMEM) with […] glucose, L‐glutamine w/o sodium pyruvate, supplemented with 10 % FBS and 1 % penicillin/streptomycin. […] The samples were transferred to a new 96 well plate and read at 560 nm on a Synergy 2 Multi‐Detection Microplate Reader (Bio‐Tek Instruments, Inc., Winooski, VT).
# HCT116 cells [5] = experiment: HCT116 cell growth and viability; type: cell-based; conditions: at the tested concentrations (data not shown)
# Text: We have previously shown that knockdown of KLK6 reduces migration and invasion of HCT116 cells in vitro.13 In order to test whether this effect could be recapitulated with small molecule KLK6 inhibitors, we measured the ability of 32 to reduce invasion of HCT116 cells. […] HCT116 cell growth and viability was not altered upon treatment with compounds 9 and 32 at the tested concentrations (data not shown).
# [6] = HTS library sample, primary dose-response enzymatic inhibition assay
# [7] = resynthesized stereoisomers, enzymatic inhibition assay (Table 2)
# [8] = synthesized inhibitors (Table 3), 8.6 = assay limit
structure (smiles),measurement,setting,value
NCc1ccc(NC(=O)c2c([O-])ccc[n+]2Cc2nccn2Cc2ccccc2)cc1 [Compound 1],pIC50,KLK6 [1]; published KLK6 inhibitors ref 18,5.74
O=C(Oc1cc(Cl)ccc1Cl)c1cc2cc(Cl)ccc2oc1=O [Compound 4],kinact/Ki,KLK6 [1]; covalent coumarin-based suicide inhibitor ref 20,131 ± 13 M⁻¹ s⁻¹
"COc1cccc([C@H](C)NC(=O)[C@H]2CN(c3ccc(C(=N)N)cc3)C(=O)O2)c1 [Compound 5, (5R)‐3‐(4‐carbamimidoylphenyl)‐N‐[(S)‐1‐(3‐methoxyphenyl)ethyl]‐2‐oxooxazolidine‐5‐carboxamide]",Kd,KLK6 [2],0.1 µM
same,IC50,KLK4,7.94 µM
same,IC50,KLK7,> 20 µM
same,IC50,KLK8,10 µM
same,IC50,Human trypsin,5.01 µM
same,IC50,Human thrombin,> 20 µM
same,IC50,Human Factor Xa,> 20 µM
same,IC50,KLK6 [3]; [6],0.0631 µM
same,LipE,"KLK6 [3]; LipE=pIC50 – logP (KLK6 pIC50, ALogP)",4.79
same,IC50,KLK6 [3]; [7],0.251 µM
same,IC50,KLK6 [3]; [8],0.251 µM
N=C(N)c1ccc(N2CC(CC(=O)NCc3ccccc3C(F)(F)F)OC2=O)cc1 (centres unmarked) [Compound 6],Kd,KLK6 [2],12.6 µM
same,IC50,KLK6 [3]; [6],10 µM
CCOC(=O)C[S+]([O-])CC1CN(c2ccc(C(=N)N)cc2)C(=O)O1 (centres unmarked) [Compound 7],Kd,KLK6 [2],20 µM
same,IC50,KLK6 [3]; [6],1.58 µM
CCN(CC)C(=O)c1cccc(OCC2CN(c3ccc(C(=N)N)cc3)C(=O)O2)c1 (centres unmarked) [Compound 8],Kd,KLK6 [2],7.94 µM
same,IC50,KLK6 [3]; [6],7.94 µM
COc1cccc([C@@H](C)NC(=O)[C@@H]2CN(c3ccc(C(=N)N)cc3)C(=O)O2)c1 [Compound 9],invasion of HCT116 cells,HCT116 cells [4],no significant effect
same,HCT116 cell growth and viability,HCT116 cells [5],not altered
same,IC50,KLK6 [3]; [7],> 20 µM
"COc1cccc([C@H](C)NC(=O)[C@@H]2CCN(c3ccc(C(=N)N)cc3)C2)c1 [Compound 47, (3R)‐1‐(4‐carbamimidoylphenyl)‐N‐[(1S)‐1‐(3‐methoxyphenyl)ethyl]pyrrolidine‐3‐carboxamide]",IC50,KLK4,1.26 µM
same,IC50,KLK7,> 20 µM
same,IC50,KLK8,7.94 µM
same,IC50,Human trypsin,5.01 µM
same,IC50,Human thrombin,> 20 µM
same,IC50,Human Factor Xa,> 20 µM
same,IC50,KLK6 [3]; [8],0.794 µM
